Experimental findings from patent US20170217976A1, “6-(AMINO ACID)-MORPHINAN DERIVATIVES IN COMBINATION WITH PERMEATION […] FOR USE AS AN ORALLY, […], TRA[…] NASALLY AD[…]” (C[…], priority 2014, published 2017) are described below.

By EC50 is commonly meant the midpoint of the concentration-response curve. For orientation: Ki means the equilibrium dissociation constant of an inhibitor or competing ligand from its target. A word on the logP: it is the decadic logarithm of the partition coefficient of the neutral form, usually between octanol and water. Read a low logP as a more hydrophilic compound.

SMILES strings stand for the structures. Where two headings read alike, the source gives them in different places.

Data set [1] has as its target T1, human MOR (Homo sapiens, UniProt P35372).
T1 construct: expressed in transfected cells; host or cells: CHO cells
Description: biochemical. Format: biochemical. To be noted: for Emax: read-out: [35S]GTPγS binding, MOR % stim. The method, then: A number of compounds were evaluated for agonist potency and efficacy at the MOR using the [^35S]GTPγS functional assay in CHO cells expressing human MOR receptors.
Background: GTPγS resists hydrolysis and so accumulates on activated G proteins.

For data set [2], the target named is T2, MOR (Rattus norvegicus, UniProt P33535).
T2 construct: from tissue
Description: Opioid receptor binding, MOR, rat brain membranes.

Data set [3] deals with T3, DOR (Rattus norvegicus, UniProt P33533).
T3 construct: from tissue
Description: Opioid receptor binding, DOR, rat brain membranes.

Data set [4] concerns the target T4, KOR (Cavia porcellus, UniProt P41144).
T4 construct: from tissue
Nature of the data set: Opioid receptor binding, KOR, guinea pig brain membranes.

The nature of data set [5]: pH-metric determination of pKa, logP and logD in octanol/water (PCA200/Cheqsol). To be noted: octanol/water, 25° C. It counts as physicochemical. Here is the method:
All titrations were performed in 0.15M KCl solution under argon gas. The pKa was determined by the shape of the titration curve and partition coefficients were determined by the shift in titration curve of pKa in the presence of octanol. The analysis of pH-metric data was performed by RefinementPro software (version 2.0, Sirius, Sussex, UK).

Data set [6] addresses T5, human MOP expressed in CHO cells (Homo sapiens, UniProt P35372).
T5 construct: expressed in transfected cells; host or cells: CHO cells (per the unit's head)
Description: [35S]GTPγS binding, antagonism at MOR (Ke against DAMGO). It counts as biochemical. The note with it: for Kb: read-out: [35S]GTPγS binding, MOR Ke, Table 1-6, antagonist Ke measured against DAMGO.

The mark [7] stands for this setting: Table 1-4, human MOP expressed in CHO cells, read-out: [35S]GTPγS binding, MOR EC50.
Where [8] appears, read: Table 1-4, measured against DAMGO.
Where [9] appears, read: Binding Ki (nM) MOR, in vitro binding assay, rat brain membranes.
The mark [10] stands for this setting: Binding Ki MOR, Table 1-4, rat brain membranes.
Setting [11] is: Binding Ki (nM) DOR, in vitro binding assay, rat brain membranes.
Setting [12] is: Binding Ki DOR, Table 1-4, rat brain membranes.
The mark [13] stands for this setting: Binding Ki (nM) KOR, in vitro binding assay, guinea pig brain membranes.
Setting [14] is: Binding Ki KOR, Table 1-4, guinea pig brain membranes.
Setting [15] is: Binding Ki MOR, Table 1-6, rat brain membranes.
[16] abbreviates: Binding Ki MOR, Table 2-6, rat brain membranes.
Where [17] appears, read: Binding Ki DOR, Table 1-6, rat brain membranes.
The mark [18] stands for this setting: Binding Ki DOR, Table 2-6, rat brain membranes.
[19] abbreviates: Binding Ki KOR, Table 1-6, guinea pig brain membranes.
The mark [20] stands for this setting: Binding Ki KOR, Table 2-6, guinea pig brain membranes.

T2 sequence (P33535 whole entry): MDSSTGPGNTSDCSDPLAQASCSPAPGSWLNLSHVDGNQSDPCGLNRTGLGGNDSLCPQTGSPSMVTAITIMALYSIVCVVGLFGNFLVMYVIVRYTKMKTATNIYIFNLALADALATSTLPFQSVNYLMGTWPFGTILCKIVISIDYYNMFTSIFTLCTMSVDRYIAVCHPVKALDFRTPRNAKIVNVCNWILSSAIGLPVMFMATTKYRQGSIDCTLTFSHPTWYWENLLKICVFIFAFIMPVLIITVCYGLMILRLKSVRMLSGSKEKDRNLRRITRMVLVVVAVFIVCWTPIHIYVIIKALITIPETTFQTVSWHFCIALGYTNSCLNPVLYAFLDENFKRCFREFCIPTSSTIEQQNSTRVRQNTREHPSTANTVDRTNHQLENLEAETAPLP
T4 sequence (P41144 whole entry): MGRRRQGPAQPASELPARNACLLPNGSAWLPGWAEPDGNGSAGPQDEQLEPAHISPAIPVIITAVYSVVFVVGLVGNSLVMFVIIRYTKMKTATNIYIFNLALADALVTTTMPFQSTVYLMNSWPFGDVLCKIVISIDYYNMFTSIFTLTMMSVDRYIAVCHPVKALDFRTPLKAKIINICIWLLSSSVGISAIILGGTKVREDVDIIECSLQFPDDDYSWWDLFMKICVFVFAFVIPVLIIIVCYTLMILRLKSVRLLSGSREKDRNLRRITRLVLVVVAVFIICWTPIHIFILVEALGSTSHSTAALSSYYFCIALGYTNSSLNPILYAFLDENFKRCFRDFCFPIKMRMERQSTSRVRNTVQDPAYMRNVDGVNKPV
T3 sequence (P33533 whole entry): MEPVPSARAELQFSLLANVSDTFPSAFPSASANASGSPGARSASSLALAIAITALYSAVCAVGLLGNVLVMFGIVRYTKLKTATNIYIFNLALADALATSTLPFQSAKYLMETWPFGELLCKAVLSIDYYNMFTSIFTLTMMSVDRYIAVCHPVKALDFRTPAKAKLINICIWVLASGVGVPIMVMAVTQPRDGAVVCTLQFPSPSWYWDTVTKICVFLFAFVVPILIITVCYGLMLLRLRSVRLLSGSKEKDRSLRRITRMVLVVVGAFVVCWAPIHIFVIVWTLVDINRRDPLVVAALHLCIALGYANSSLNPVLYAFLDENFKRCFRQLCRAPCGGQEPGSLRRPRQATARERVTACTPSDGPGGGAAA
T5 sequence (P35372 whole entry): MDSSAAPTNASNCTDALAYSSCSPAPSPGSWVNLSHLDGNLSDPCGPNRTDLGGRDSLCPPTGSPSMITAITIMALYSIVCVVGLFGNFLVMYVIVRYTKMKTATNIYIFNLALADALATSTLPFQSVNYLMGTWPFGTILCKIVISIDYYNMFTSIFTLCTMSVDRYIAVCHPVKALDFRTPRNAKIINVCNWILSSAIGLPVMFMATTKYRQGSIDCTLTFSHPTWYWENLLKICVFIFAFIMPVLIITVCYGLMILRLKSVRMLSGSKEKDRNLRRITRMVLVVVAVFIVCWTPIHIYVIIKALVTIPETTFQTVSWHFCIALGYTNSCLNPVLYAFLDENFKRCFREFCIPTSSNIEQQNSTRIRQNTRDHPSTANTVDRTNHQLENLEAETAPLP
T1 sequence (P35372 whole entry): as above

As to `CO[C@@]12CC[C@H](N[C@@H](Cc3ccccc3)C(=O)O)[C@@H]3Oc4c(O)ccc5c4[C@@]31CCN(C)[C@@H]2C5` [Compound 3], in data set [1] (setting [7]), the 50% effective concentration (EC50) came to 0.03 nM. Besides, the Emax in data set [1] (setting [8]) is 116%.
With `CO[C@@]12CC[C@H](N[C@@H](CCC(=O)O)C(=O)O)[C@@H]3Oc4c(O)ccc5c4[C@@]31CCN(C)[C@@H]2C5` [Compound 19], the concentration giving a half-maximal response (EC50) in data set [1] (setting [7]) turned out to be 1.61 nM.
For the compound `CO[C@@]12CC[C@H](N[C@@H](CC(N)=O)C(=O)O)[C@@H]3Oc4c(O)ccc5c4[C@@]31CCN(C)[C@@H]2C5` [Compound 26], the Ki in data set [2] (setting [9]) was 1.17 nM; in data set [2] (setting [10]) it was 1.17 nM; in data set [3] (setting [11]) it was 3.37 nM; in data set [3] (setting [12]) it was 3.37 nM; in data set [4] (setting [13]) it was 74 nM; in data set [4] (setting [14]), 74 nM. For the same compound, the EC50 in data set [1] (setting [7]) was determined as 0.64 nM. Moreover, the Emax in data set [1] (setting [8]) is 109%.
As to `CO[C@@]12CC[C@@H](N[C@H](C(=O)O)[C@@H](C)O)[C@@H]3Oc4c(O)ccc5c4[C@@]31CCN(C)[C@@H]2C5` [Compound 35], the Ki in data set [2] (setting [9]) was found to be 0.79 nM; in data set [2] (setting [10]), 0.79 nM; in data set [3] (setting [11]), 5.16 nM; in data set [3] (setting [12]), 5.16 nM; in data set [4] (setting [13]) it was 58.6 nM; in data set [4] (setting [14]), 58.6 nM. In data set [5], this compound displayed a logP of -1.38.
For `CO[C@@]12CC[C@H](N[C@@H](CO)C(=O)O)[C@@H]3Oc4c(O)ccc5c4[C@@]31CCN(C)[C@@H]2C5` [Compound 36], the inhibition constant (Ki) was 2.21 nM in data set [2] (setting [9]); 2.21 nM in data set [2] (setting [10]); 5.32 nM in data set [3] (setting [11]); 5.32 nM in data set [3] (setting [12]); 196 nM in data set [4] (setting [13]); 196 nM in data set [4] (setting [14]). Moreover, the concentration giving a half-maximal response (EC50) in data set [1] was 1.21 nM. For the same compound, the Emax in data set [1] was determined as 96%.
As for `CO[C@@]12CC[C@@H](N[C@@H](CO)C(=O)O)[C@@H]3Oc4c(O)ccc5c4[C@@]31CCN(C)[C@@H]2C5` [Compound 37], the inhibitory constant (Ki) was determined as 2.14 nM in data set [2] (setting [9]); 2.14 nM in data set [2] (setting [10]); 5.29 nM in data set [3] (setting [11]); 5.29 nM in data set [3] (setting [12]); 152 nM in data set [4] (setting [13]); 152 nM in data set [4] (setting [14]). For the same compound, the EC50 in data set [1] (setting [7]) came to 3.24 nM.
For the compound `CO[C@@]12CC[C@H](N[C@@H](CCCCN)C(=O)O)[C@@H]3Oc4c(O)ccc5c4[C@@]31CCN(C)[C@@H]2C5` [Compound 38], the inhibitory constant (Ki) amounted to 0.19 nM in data set [2] (setting [9]); 0.19 nM in data set [2] (setting [10]); 1.27 nM in data set [3] (setting [11]); 1.27 nM in data set [3] (setting [12]); 12.6 nM in data set [4] (setting [13]); 12.6 nM in data set [4] (setting [14]). Moreover, in data set [5], the lipophilicity (logP) is -0.66.
For `CO[C@@]12CC[C@@H](N[C@@H](CC(=O)O)C(=O)O)[C@@H]3Oc4c(O)ccc5c4[C@@]31CCN(C)[C@@H]2C5` [Compound 45], the lipophilicity (logP) in data set [5] is -2.2.
As to `CO[C@@]12CC[C@@H](N[C@@H](Cc3c[nH]c4ccccc34)C(=O)O)[C@@H]3Oc4c(O)ccc5c4[C@@]31CCN(C)[C@@H]2C5` [Compound 46], the Ki in data set [2] (setting [9]) was 0.65 nM; in data set [2] (setting [10]), 0.65 nM; in data set [3] (setting [11]) it was 1.19 nM; in data set [3] (setting [12]) it was 1.19 nM; in data set [4] (setting [13]), 8.66 nM; in data set [4] (setting [14]), 8.66 nM. Further, in data set [1] (setting [7]), the EC50 was found to be 0.61 nM. Also, in data set [1] (setting [8]), the Emax was 112%.
With `CO[C@@]12CC[C@H](NCCCC(=O)O)[C@@H]3Oc4c(O)ccc5c4[C@@]31CCN(CC1CC1)[C@@H]2C5` [Compound 65], the Ki in data set [2] (setting [15]) came to 1.21 nM; in data set [2] (setting [16]) it was 1.21 nM; in data set [3] (setting [17]) it was 10.7 nM; in data set [3] (setting [18]), 10.7 nM; in data set [4] (setting [19]), 5.31 nM; in data set [4] (setting [20]), 5.31 nM. Further, the concentration for a half-maximal effect (EC50) in data set [6] was above 10000 nM. The Kb in data set [6] turned out to be 0.94 nM.
As for `CO[C@@]12CC[C@@H](NCCCC(=O)O)[C@@H]3Oc4c(O)ccc5c4[C@@]31CCN(CC1CC1)[C@@H]2C5` [Compound 66], the Ki in data set [2] (setting [15]) turned out to be 3.36 nM; in data set [2] (setting [16]), 3.36 nM; in data set [3] (setting [17]), 10.2 nM; in data set [3] (setting [18]), 10.2 nM; in data set [4] (setting [19]), 16.8 nM; in data set [4] (setting [20]), 16.8 nM. The same compound yielded an EC50 in data set [6] above 10000 nM. Also, the Kb in data set [6] amounted to 1.06 nM.
